Measured values published in ChEMBL document CHEMBL1131658, “Potent cyclic urea HIV protease inhibitors with 3-aminoindazole P2/P2' groups” (Bioorg Med Chem Lett, 1998).

Key:
[1] = biological target: Human immunodeficiency virus type 1 protease (Human immunodeficiency virus 1, UniProt Q72874); experiment: The compound was evaluated for inhibition of HIV protease
[2] = tested on: MT2; experiment: Compound was evaluated for accumulation of viral RNA transcripts three days after infection of MT-2 cells with HIV-1 RF; type: functional; settings: Homo sapiens, MT2, 72 h
[3] = Ratio of -logKi with respect to inhibition was evaluated; type: functional
[4] = Percentage Bioavailability was evaluated.; type: ADME, organism-based; settings: in vivo; read-out: Bioavailabiility
[5] = Maximum concentration of compound in dog was evaluated.; type: ADME, organism-based, Canis lupus familiaris; settings: in vivo
[6] = Maximum concentration of compound in rat was evaluated.; type: ADME, organism-based; settings: in vivo
[7] = Half life period was evaluated.; type: ADME

Structure (SMILES): CC(C)Nc1[nH]nc2ccc(CN3C(=O)N(Cc4ccc5n[nH]c(NC(C)C)c5c4)[C@H](Cc4ccccc4)[C@H](O)[C@@H](O)[C@H]3Cc3ccccc3)cc12
- Ki [1]: 0.09 nM
- IC90 [2]: 24 nM
- Ratio [3]: 2.4

Structure (SMILES): O=C1N(Cc2ccc3[nH]ncc3c2)[C@H](Cc2ccccc2)[C@H](O)[C@@H](O)[C@@H](Cc2ccccc2)N1Cc1ccc2[nH]ncc2c1
- bioavailability [4]: 13%
- Cmax [5]: 1 µM
- Cmax [6]: 0.03 µM
- half-life [7]: 2 h
- IC90 [2]: 8 nM

Structure (SMILES): Nc1n[nH]c2ccc(CN3C(=O)N(Cc4ccc5[nH]nc(N)c5c4)[C@H](Cc4ccccc4)[C@H](O)[C@@H](O)[C@H]3Cc3ccccc3)cc12
- Ki [1]: < 0.01 nM

Structure (SMILES): Nc1[nH]nc2ccc(CN3C(=O)N(Cc4ccc5n[nH]c(N)c5c4)[C@H](Cc4ccccc4)[C@H](O)[C@@H](O)[C@H]3Cc3ccccc3)cc12
- IC90 [2]: 2760 nM
- Ratio [3]: 5.4

Structure (SMILES): CNc1[nH]nc2ccc(CN3C(=O)N(Cc4ccc5n[nH]c(NC)c5c4)[C@H](Cc4ccccc4)[C@H](O)[C@@H](O)[C@H]3Cc3ccccc3)cc12
- Ki [1]: 0.018 nM
- IC90 [2]: 279 nM
- Ratio [3]: 4.2

Structure (SMILES): CCNc1[nH]nc2ccc(CN3C(=O)N(Cc4ccc5n[nH]c(NCC)c5c4)[C@H](Cc4ccccc4)[C@H](O)[C@@H](O)[C@H]3Cc3ccccc3)cc12
- Ki [1]: 0.041 nM
- IC90 [2]: 65 nM
- Ratio [3]: 3.2

Structure (SMILES): O=C1N(Cc2ccc3[nH]nc(NCC4CC4)c3c2)[C@H](Cc2ccccc2)[C@H](O)[C@@H](O)[C@@H](Cc2ccccc2)N1Cc1ccc2[nH]nc(NCC3CC3)c2c1
- Ki [1]: 0.34 nM
- IC90 [2]: 38 nM
- Ratio [3]: 2.1

Structure (SMILES): O=C1N(Cc2ccc3[nH]nc(N4CCCC4)c3c2)[C@H](Cc2ccccc2)[C@H](O)[C@@H](O)[C@@H](Cc2ccccc2)N1Cc1ccc2[nH]nc(N3CCCC3)c2c1
- Ki [1]: 1.3 nM
- IC90 [2]: 120 nM
- Ratio [3]: 2

Structure (SMILES): CCCNc1[nH]nc2ccc(CN3C(=O)N(Cc4ccc5n[nH]c(NCCC)c5c4)[C@H](Cc4ccccc4)[C@H](O)[C@@H](O)[C@H]3Cc3ccccc3)cc12
- Ki [1]: 0.23 nM
- IC90 [2]: 40 nM
- Ratio [3]: 2.2

Structure (SMILES): O=C1N(Cc2ccc3[nH]c(O)nc3c2)[C@H](Cc2ccccc2)[C@H](O)[C@@H](O)[C@@H](Cc2ccccc2)N1Cc1ccc2[nH]c(O)nc2c1
- Ki [1]: < 0.01 nM
- IC90 [2]: > 65000 nM
